Reference: US10000483B2, “Bone marrow on X chromosome kinase (BMX) inhibitors and uses thereof” (Dana-Farber Cancer Institute, Inc., priority 2012, dated 2018)
Where “and” joins values, the source holds several entries; their conditions need not be identical. Identical values can stand only once.

Legend:
OCI-Ly3 cells = experiment: Cell proliferation analysis for WM and lymphoma cell lines (CellTiter-Glo); assay type: cell-based; details: Homo sapiens, 72 hours
Procedure: (§2) Various cell lines were used including Waldenström's macroglobulinemia (WM) cell lines (BCWM.1, MWCL-1, RPCI-WM1) and B-cell lymphoma cell lines (OCI-Ly3, Ramos, OCI-Ly19). Cells were seeded into 384 well plates with the EL406 Combination Washer Dispenser (BioTek Instruments, Inc.) and inhibitor compounds were injected into the cells culture media with the JANUS Automated Workstation (PerkinElmer Inc.).

OCI-Ly19 cells = experiment: as above; assay type: cell-based; details: Homo sapiens, 72 hours
Procedure: as §2

[1] = tested on: CD19+ B-cells from a Waldenstrom's macroglobulinemia patient; experiment: Apoptosis analysis of primary patient cells (Annexin V/propidium iodide); assay type: cell-based, human; details: patient after six months of ibrutinib treatment; FIG. 22
Procedure: Primary patient WM cells genotyped for MYD88 L265P, as well as MYD88 WT healthy donor CD19-selected peripheral blood mononuclear cells (PBMCs) were treated with and without inhibitor compounds. Cells were incubated at 37° C. with 0.01˜4 μM of an inhibitor compound of Formula (I) or (II) (e.g., 11-4). Apoptosis analysis was performed using Annexin V-FITC/Propidium iodide staining with the Apoptosis Detection Kit I (BD Pharmingen). 1×10^6/well cells were treated in 24 well plates for˜24 hours with inhibitor compounds or corresponding controls. A minimum of 10,000 events were acquired using a BD™ FACSCanto II flow cytometer and analyzed with BD FACS DIVA Software.

MWCL-1 cells = experiment: Cell proliferation analysis for WM and lymphoma cell lines (CellTiter-Glo); assay type: cell-based; details: 72 hours
Procedure: as §2

BCWM.1 cells = experiment: as above; assay type: cell-based; details: BCWM1; 72 hours
Procedure: as §2

MKNK2 = MKNK2 (Homo sapiens (Human), UniProt Q9HBH9); experiment: Kinase panel at 1 uM (Table 9); assay type: binding; details: read-out: % inhibition at 1 uM, MKNK2
Excerpt: (§3) Screening hits are identified by measuring the amount of protein captured in test versus control samples by using a quantitative, precise, and ultra-sensitive qPCR method that detects the associated DNA label.

BLK [2] = target: T1, BLK (Homo sapiens (Human), UniProt P51451); experiment: Invitrogen Select Screening in vitro kinase assay; assay type: biochemical
T1 sequence (P51451 whole entry): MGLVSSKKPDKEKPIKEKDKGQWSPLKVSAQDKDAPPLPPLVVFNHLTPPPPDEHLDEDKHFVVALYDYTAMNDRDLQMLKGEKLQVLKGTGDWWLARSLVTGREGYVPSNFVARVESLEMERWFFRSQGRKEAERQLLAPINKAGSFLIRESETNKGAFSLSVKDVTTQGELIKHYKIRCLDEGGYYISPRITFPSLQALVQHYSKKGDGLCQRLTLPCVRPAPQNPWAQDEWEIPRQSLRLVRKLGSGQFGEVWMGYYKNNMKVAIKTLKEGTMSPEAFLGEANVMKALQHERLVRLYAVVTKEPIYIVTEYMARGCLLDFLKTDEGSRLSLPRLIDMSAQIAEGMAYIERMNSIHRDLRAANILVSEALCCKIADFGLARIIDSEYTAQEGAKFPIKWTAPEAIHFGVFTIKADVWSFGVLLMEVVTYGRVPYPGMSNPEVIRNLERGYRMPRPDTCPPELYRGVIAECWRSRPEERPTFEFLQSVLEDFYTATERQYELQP
Excerpt: (§1) The in vitro activity of compounds of Formula (I) and (II) in inhibiting BMX and other kinases were obtained using an Invitrogen Select Screening assay as known in the art. The IC50 values determined from this assay are shown below.

mTOR [3] = target: T2, mTOR (Homo sapiens (Human), UniProt P42345); experiment: Invitrogen Select Screening in vitro kinase assay; assay type: biochemical
Excerpt: as §1

JNK1 = JNK1 (Homo sapiens (Human), UniProt P45983); experiment: Kinase panel at 1 uM (Table 9); assay type: binding; details: read-out: % inhibition at 1 uM, JNK1
Excerpt: as §3

CLK2 [4] = target: T3, CLK2 (Homo sapiens (Human), UniProt P49760); experiment: Invitrogen Select Screening in vitro kinase assay; assay type: biochemical; details: second value of CLK1/2 cell
T3 sequence (P49760 whole entry): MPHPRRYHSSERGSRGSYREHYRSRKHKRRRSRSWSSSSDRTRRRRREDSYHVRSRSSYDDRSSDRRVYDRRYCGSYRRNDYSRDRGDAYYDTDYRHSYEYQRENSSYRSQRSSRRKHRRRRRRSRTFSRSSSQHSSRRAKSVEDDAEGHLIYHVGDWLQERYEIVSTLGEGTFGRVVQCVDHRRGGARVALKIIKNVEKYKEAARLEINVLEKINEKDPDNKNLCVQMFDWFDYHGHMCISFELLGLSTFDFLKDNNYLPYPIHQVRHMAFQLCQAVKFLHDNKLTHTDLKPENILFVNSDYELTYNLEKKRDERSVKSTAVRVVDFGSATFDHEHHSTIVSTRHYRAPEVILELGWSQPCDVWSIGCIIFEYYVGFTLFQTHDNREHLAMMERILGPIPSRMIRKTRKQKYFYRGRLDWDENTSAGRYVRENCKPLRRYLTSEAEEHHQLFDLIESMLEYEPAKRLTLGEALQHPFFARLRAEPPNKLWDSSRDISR

EGFR(T790M) [5] = target: T4, EGFR(T790M) (Homo sapiens (Human), UniProt P00533, T790M); experiment: DiscoverX binding assay
Excerpt: as §3

DYRK2 = DYRK2 (Homo sapiens (Human), UniProt Q92630); experiment: Kinase panel at 1 uM (Table 9); assay type: binding; details: read-out: % inhibition at 1 uM, DYRK2
Excerpt: as §3

PIK3CA(I800L) = PIK3CA(I800L) (Homo sapiens (Human), UniProt P42336, I800L); experiment: Kinase panel at 1 uM (Table 9); assay type: binding; details: read-out: % inhibition at 1 uM, PIK3CA(I800L)
Excerpt: as §3

PIK3CG = PIK3CG (Homo sapiens (Human), UniProt P48736); experiment: Kinase panel at 1 uM (Table 9); assay type: binding; details: read-out: % inhibition at 1 uM, PIK3CG
Sequence of PIK3CG (P48736 whole entry): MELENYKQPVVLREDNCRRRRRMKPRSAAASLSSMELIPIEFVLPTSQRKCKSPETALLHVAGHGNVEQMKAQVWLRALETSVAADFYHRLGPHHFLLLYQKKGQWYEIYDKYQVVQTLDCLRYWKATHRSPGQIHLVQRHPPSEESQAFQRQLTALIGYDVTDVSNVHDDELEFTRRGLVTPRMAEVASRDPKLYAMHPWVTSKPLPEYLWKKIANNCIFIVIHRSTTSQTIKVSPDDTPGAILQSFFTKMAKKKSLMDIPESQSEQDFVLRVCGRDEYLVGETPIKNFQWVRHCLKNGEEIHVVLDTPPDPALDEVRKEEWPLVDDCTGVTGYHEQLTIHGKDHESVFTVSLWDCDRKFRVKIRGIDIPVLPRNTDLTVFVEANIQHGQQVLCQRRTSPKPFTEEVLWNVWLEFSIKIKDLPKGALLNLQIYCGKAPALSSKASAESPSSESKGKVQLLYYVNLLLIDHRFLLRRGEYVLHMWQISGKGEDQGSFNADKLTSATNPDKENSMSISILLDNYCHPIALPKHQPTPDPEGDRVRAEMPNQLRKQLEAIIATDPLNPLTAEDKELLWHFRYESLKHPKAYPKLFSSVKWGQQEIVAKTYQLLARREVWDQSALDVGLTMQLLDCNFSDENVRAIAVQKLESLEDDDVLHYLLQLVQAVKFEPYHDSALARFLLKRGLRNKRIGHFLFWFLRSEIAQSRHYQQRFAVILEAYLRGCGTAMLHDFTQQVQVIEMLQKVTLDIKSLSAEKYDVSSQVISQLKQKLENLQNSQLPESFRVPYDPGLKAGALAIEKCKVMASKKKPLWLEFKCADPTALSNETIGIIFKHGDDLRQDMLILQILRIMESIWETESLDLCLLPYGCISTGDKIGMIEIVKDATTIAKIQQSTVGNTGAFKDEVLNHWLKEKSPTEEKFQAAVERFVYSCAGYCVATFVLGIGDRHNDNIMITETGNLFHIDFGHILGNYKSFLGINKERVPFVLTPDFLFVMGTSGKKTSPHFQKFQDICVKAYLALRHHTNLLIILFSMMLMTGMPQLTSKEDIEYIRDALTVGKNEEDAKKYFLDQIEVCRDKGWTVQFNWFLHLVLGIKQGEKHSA
Excerpt: as §3

PIK4CB = PIK4CB (Homo sapiens (Human), UniProt Q9UBF8); experiment: Kinase panel at 1 uM (Table 9); assay type: binding; details: read-out: % inhibition at 1 uM, PIK4CB
Excerpt: as §3

DYRK1B = DYRK1B (Homo sapiens (Human), UniProt Q9Y463); experiment: Kinase panel at 1 uM (Table 9); assay type: binding; details: read-out: % inhibition at 1 uM, DYRK1B
Excerpt: as §3

TEC = TEC (Homo sapiens (Human), UniProt P42680); experiment: DiscoverX binding assay
Excerpt: as §3

JAK3 [6] = target: T5, JAK3 (Homo sapiens (Human), UniProt P52333); experiment: Invitrogen Select Screening in vitro kinase assay; assay type: biochemical
T5 sequence (P52333 whole entry): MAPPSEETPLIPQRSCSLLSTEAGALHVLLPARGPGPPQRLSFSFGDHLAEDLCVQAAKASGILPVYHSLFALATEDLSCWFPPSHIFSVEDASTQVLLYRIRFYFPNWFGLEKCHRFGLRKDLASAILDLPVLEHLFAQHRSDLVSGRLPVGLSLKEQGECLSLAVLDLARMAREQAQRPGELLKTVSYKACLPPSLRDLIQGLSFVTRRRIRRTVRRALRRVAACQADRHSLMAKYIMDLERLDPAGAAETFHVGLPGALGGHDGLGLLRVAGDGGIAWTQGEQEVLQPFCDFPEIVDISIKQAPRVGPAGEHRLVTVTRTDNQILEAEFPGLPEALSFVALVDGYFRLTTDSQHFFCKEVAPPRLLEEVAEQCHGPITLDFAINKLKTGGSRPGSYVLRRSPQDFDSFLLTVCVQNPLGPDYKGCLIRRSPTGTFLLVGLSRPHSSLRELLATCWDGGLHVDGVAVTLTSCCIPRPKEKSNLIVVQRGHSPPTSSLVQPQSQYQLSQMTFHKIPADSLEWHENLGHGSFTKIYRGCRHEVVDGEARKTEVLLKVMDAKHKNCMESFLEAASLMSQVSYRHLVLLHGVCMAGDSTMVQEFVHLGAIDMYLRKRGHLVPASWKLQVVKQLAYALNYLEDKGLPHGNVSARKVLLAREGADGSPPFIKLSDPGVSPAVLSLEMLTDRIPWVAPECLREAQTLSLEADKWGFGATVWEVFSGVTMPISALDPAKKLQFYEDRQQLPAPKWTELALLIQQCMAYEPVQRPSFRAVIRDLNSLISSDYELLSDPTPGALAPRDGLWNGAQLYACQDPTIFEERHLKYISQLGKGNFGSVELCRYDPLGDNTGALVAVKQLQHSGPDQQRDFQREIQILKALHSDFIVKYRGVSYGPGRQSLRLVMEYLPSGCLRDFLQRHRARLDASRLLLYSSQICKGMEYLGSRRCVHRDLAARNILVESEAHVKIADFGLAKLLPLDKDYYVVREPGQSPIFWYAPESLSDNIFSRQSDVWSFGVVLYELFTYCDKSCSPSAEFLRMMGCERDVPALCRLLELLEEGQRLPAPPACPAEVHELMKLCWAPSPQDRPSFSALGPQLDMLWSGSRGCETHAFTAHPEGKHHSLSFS

BMX [7] = target: T6, BMX (Homo sapiens (Human), UniProt P51813); experiment: Invitrogen Select Screening in vitro kinase assay; assay type: biochemical
T6 sequence (P51813 whole entry): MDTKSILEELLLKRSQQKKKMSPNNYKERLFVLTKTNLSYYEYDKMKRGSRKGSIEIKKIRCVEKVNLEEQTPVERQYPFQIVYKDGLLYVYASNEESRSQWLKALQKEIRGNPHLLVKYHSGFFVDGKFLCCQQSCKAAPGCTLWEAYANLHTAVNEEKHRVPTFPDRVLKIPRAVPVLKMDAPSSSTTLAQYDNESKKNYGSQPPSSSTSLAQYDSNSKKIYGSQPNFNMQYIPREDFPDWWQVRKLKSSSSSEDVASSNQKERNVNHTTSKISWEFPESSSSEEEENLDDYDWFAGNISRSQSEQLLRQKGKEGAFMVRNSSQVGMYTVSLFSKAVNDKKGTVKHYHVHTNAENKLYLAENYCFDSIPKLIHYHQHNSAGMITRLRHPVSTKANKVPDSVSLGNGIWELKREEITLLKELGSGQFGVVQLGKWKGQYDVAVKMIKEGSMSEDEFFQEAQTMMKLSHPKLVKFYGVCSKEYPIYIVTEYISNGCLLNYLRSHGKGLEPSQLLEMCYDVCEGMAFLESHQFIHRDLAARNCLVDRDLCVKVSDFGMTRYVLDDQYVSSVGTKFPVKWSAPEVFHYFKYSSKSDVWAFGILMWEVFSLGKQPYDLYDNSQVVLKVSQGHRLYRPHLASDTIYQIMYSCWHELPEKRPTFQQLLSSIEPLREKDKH

EGFR(T790M) [8] = target: T4, EGFR(T790M); experiment: Invitrogen Select Screening in vitro kinase assay; assay type: biochemical
Ramos cells = experiment: Cell proliferation analysis for WM and lymphoma cell lines (CellTiter-Glo); assay type: cell-based; details: Homo sapiens, 72 hours
Procedure: as §2

mTOR [9] = target: T2, mTOR; experiment: DiscoverX binding assay; details: DiscoverX binding
Excerpt: as §3

CLK1 [10] = target: T7, CLK1 (Homo sapiens (Human), UniProt P49759); experiment: DiscoverX binding assay
T7 sequence (P49759 whole entry): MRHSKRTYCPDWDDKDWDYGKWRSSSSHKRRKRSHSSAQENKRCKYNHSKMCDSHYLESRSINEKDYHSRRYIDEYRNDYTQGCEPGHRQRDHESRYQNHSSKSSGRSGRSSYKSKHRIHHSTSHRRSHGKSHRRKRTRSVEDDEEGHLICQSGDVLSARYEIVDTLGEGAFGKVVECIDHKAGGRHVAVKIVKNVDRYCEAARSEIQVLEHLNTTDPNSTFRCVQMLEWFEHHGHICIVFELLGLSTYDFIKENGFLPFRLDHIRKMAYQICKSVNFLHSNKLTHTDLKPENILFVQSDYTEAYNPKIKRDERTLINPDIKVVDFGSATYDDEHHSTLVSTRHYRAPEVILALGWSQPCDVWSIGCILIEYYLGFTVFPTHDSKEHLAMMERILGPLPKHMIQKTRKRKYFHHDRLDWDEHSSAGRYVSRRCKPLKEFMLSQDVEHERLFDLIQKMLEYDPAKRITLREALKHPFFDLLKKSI
Excerpt: as §3

YSK4 = YSK4 (Homo sapiens (Human), UniProt Q56UN5); experiment: Kinase panel at 1 uM (Table 9); assay type: binding; details: read-out: % inhibition at 1 uM, YSK4
Excerpt: as §3

PIP5K2C = PIP5K2C (Homo sapiens (Human), UniProt Q8TBX8); experiment: Kinase panel at 1 uM (Table 9); assay type: binding; details: read-out: % inhibition at 1 uM, PIP5K2C
Excerpt: as §3

BTK [11] = target: T8, BTK (Homo sapiens (Human), UniProt Q06187); experiment: Invitrogen Select Screening in vitro kinase assay; assay type: biochemical
T8 sequence (Q06187 whole entry): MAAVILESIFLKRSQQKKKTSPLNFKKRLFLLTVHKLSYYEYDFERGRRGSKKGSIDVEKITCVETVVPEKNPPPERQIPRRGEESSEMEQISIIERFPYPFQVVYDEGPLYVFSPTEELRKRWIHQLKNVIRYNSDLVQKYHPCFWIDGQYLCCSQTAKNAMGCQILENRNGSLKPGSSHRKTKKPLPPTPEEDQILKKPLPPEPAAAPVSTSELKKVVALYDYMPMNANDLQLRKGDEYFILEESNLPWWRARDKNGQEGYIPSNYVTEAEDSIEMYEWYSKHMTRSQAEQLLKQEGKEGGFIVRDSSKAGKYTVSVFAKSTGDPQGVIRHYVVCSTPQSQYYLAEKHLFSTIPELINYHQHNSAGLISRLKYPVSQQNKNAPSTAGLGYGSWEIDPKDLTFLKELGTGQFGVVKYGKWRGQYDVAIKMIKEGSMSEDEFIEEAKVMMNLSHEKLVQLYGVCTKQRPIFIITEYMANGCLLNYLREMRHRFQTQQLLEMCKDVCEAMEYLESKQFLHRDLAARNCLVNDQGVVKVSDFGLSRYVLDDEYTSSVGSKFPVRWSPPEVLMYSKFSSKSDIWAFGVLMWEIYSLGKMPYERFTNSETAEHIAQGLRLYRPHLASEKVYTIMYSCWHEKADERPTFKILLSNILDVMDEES

CSNK2A2 = CSNK2A2 (Homo sapiens (Human), UniProt P19784); experiment: Kinase panel at 1 uM (Table 9); assay type: binding; details: read-out: % inhibition at 1 uM, CSNK2A2
Excerpt: as §3

MEK5 = MEK5 (Homo sapiens (Human), UniProt Q13163); experiment: Kinase panel at 1 uM (Table 9); assay type: binding; details: read-out: % inhibition at 1 uM, MEK5
Excerpt: as §3

FLT3(ITD) = experiment: Kinase panel at 1 uM (Table 9); assay type: binding
Excerpt: as §3

CLK1 [12] = target: T7, CLK1; experiment: Invitrogen Select Screening in vitro kinase assay; assay type: biochemical; details: first value of CLK1/2 cell
ITK = ITK (Homo sapiens (Human), UniProt Q08881); experiment: DiscoverX binding assay
Excerpt: as §3

CLK2 [13] = target: T3, CLK2; experiment: DiscoverX binding assay
Excerpt: as §3

BLK [14] = target: T1, BLK; experiment: DiscoverX binding assay
Excerpt: as §3

BMX [15] = target: T6, BMX; experiment: DiscoverX binding assay
Excerpt: as §3

JAK3 [16] = target: T5, JAK3; experiment: DiscoverX binding assay
Excerpt: as §3

JNK3 = JNK3 (Homo sapiens (Human), UniProt P53779); experiment: Kinase panel at 1 uM (Table 9); assay type: binding; details: read-out: % inhibition at 1 uM, JNK3
Excerpt: as §3

IRAK3 = IRAK3 (Homo sapiens (Human), UniProt Q9Y616); experiment: Kinase panel at 1 uM (Table 9); assay type: binding; details: read-out: % inhibition at 1 uM, IRAK3
Excerpt: as §3

TAK1 = TAK1 (Homo sapiens (Human), UniProt O43318); experiment: Kinase panel at 1 uM (Table 9); assay type: binding; details: read-out: % inhibition at 1 uM, TAK1
Excerpt: as §3

DYRK1A = DYRK1A (Homo sapiens (Human), UniProt Q13627); experiment: Kinase panel at 1 uM (Table 9); assay type: binding; details: read-out: % inhibition at 1 uM, DYRK1A
Excerpt: as §3

BTK [17] = target: T8, BTK; experiment: DiscoverX binding assay
Excerpt: as §3

RV-1 cells = experiment: Combination of I-14 with MK2206, dose-response in RV-1 cells; details: with I-14
[18] = tested on: Bmx- MEF cells stably overexpressing BmxWT; experiment: Wound healing assay; assay type: cell-based, mouse; details: preincubated 4 h; leading edges at 0 and 9 h
Procedure: FIGS. 3A-B show the immunoblotting results where BMX (SiBMX) or control siRNA (SiCtrl) transfected LNCaP cells (FIG. 3A) or VCS2 cells (FIG. 3B) were serum starved for 72 h, serum was stimulated for the indicated times, and the whole cell lysates were immunoblotted. […] FIG. 3G is a bar graph showing the migrated distances where scratch wounds were introduced into confluent heterozygous for Bmx (Bmx^+/−), Bmx^+, or Bmx^− MEFs, and the leading edges were photographed at 0 and 9 h. The migrated distance was measured and normalized to #1 Bmx-group. Error bars depict standard error (SE) for three experiments (***: p<0.001). FIG. 3H is a bar graph showing the migrated distances where scratch wounds were introduced into confluent Bmx^− MEFs stably overexpressing BmxWT, BmxKD, or empty vector (EV), and the leading edges were photographed at 0 and 9 h. The migrated distance was measured and normalized to EV group. Error bar depict standard error (SE) for three independent experiments (*: p<0.05). FIG. 3I is a bar graph showing the migrated distances where Bmx^− MEF cells stably overexpressing BmxWT were preincubated with FAK inhibitor (PF562271) for 4 h. Scratch wounds were introduced into the cells, and the leading edges were photographed at 0 and 9 h. The migrated distance was measured and normalized to control group (Ctrl). […]

For `C=CC(=O)N1CCc2ccc(-n3c(=O)ccc4cnc5ccc(-c6cnn(C)c6)cc5c43)cc21` [II-4], the EC50 (OCI-Ly3 cells) was 190 nM, the EC50 (OCI-Ly19 cells) was 30 nM and the “killing of ex vivo CD19+ B-cells” value [1] was “effectively killed ex vivo cells”. It also gave an EC50 (MWCL-1 cells) of 190 nM and an EC50 (BCWM.1 cells) of 120 nM.

In the case of `C=CC(=O)Nc1cc(-n2c(=O)ccc3cnc4ccc(-c5cn[nH]c5)cc4c32)ccc1C` [II-6], the inhibition at 1 µM (MKNK2) is reported as 0.15%, the IC50 (BLK [2]) is reported as 30.2 nM and 30 nM and the IC50 (mTOR [3]) is reported as 21.9 nM and 22 nM. It also gave an EC50 (OCI-Ly3 cells) of 80 nM, an inhibition at 1 µM (JNK1) of 1.9% and an EC50 (OCI-Ly19 cells) of 40 nM. The IC50 (CLK2 [4]) was 50 nM, the “Percent Control, EGFR(T790M)” value (EGFR(T790M) [5]; DiscoverX binding) was 1.8% and the inhibition at 1 µM (EGFR(T790M) [5]; read-out: % inhibition at 1 uM, EGFR(T790M)) was 1.4%. The inhibition at 1 µM (DYRK2) was 0.6%, the inhibition at 1 µM (PIK3CA(I800L)) was 0.45% and the inhibition at 1 µM (PIK3CG) was 4.2%. For the same compound, the inhibition at 1 µM (PIK4CB) was 2.3%, the inhibition at 1 µM (DYRK1B) was 1.8% and the “Percent Control, TEC” value (TEC) was 6%. For the same compound, the IC50 (JAK3 [6]) was 38.1 nM and 38 nM, the IC50 (BMX [7]) was 7.36 nM and 7 nM and the IC50 (EGFR(T790M) [8]) was 98.8 nM. The EC50 (Ramos cells) was 40 nM, the “Percent Control, mTOR” value (mTOR [9]) was 0% and the “Percent Control, CLK1/2 (CLK1)” value (CLK1 [10]; DiscoverX binding, first value of cell) was 0.4%. It also gave an inhibition at 1 µM (CLK1 [10]; read-out: % inhibition at 1 uM, CLK1) of 0.4%, an inhibition at 1 µM (YSK4) of 1.2% and an inhibition at 1 µM (PIP5K2C) of 2.7%. The EC50 (MWCL-1 cells) was 180 nM, the IC50 (BTK [11]) was 5.34 nM and 5 nM and the inhibition at 1 µM (CSNK2A2) was 1.2%. The inhibition at 1 µM (MEK5) was 0.3%, the “% inhibition at 1 uM, FLT3(ITD)” value (FLT3(ITD)) was 2.4% and the IC50 (CLK1 [12]) was 384 nM. For the same compound, the “Percent Control, ITK” value (ITK) was 29%, the “Percent Control, CLK1/2 (CLK2)” value (CLK2 [13]; DiscoverX binding, second value of cell) was 1.0% and the inhibition at 1 µM (CLK2 [13]; read-out: % inhibition at 1 uM, CLK2) was 1.6%. For the same compound, the “Percent Control, BLK” value (BLK [14]; DiscoverX binding) was 2.4%, the inhibition at 1 µM (BLK [14]; read-out: % inhibition at 1 uM, BLK) was 2.4% and the “Percent Control, BMX” value (BMX [15]) was 4.6%. For the same compound, the “Percent Control, JAK3” value (JAK3 [16]; DiscoverX binding) was 0%, the inhibition at 1 µM (JAK3 [16]; read-out: % inhibition at 1 uM, JAK3(JH1domain-catalytic)) was 0% and the inhibition at 1 µM (JNK3) was 1.8%. For the same compound, the EC50 (BCWM.1 cells) was 50 nM, the inhibition at 1 µM (IRAK3) was 0.7% and the inhibition at 1 µM (TAK1) was 0.35%. The inhibition at 1 µM (DYRK1A) was 0.1%, the “Percent Control, BTK” value (BTK [17]; DiscoverX binding) was 0.2% and the percent of control (remaining binding) at 1 µM (BTK [17]; read-out: % inhibition at 1 uM, BTK) was 0.2%.

With `NC1(c2ccc(-c3nc4ccn5c(=O)[nH]nc5c4cc3-c3ccccc3)cc2)CCC1` [MK2206] the “MK2206 concentration that potentiates the antiproliferative activity of I-14” value (RV-1 cells) was ≤ 25 nM.

With `CN(c1ncccc1CNc1nc(Nc2ccc3c(c2)CC(=O)N3)ncc1C(F)(F)F)S(C)(=O)=O` [PF562271] the “stimulatory effect of BmxWT on wound healing migration” value [18] was “blocked”.
